Two compounds from patent EP0262209B1, “SYNERGISTIC PLANT GROWTH REGULATOR COMPOSITIONS” (RHONE POULENC NEDERLAND B.V., priority 1986, dated 1987) can be followed below.

The test system of test [1] is cotton. The experiment in a line: Defoliation of cotton at various rates (Example XII, Table I). The note with it: Rate 0.5 Pounds per Acre, alone. In kind it is in vivo. The procedure:
(§1) Solutions of the test compounds and compositions identified in Table F were prepared by dissolving the compounds in acetone/water (50:50 volume/volume) containing 0.1 percent volume/volume of Surfel® spray adjuvant commercially available from Union Carbide Corporation, Danbury, Connecticut. As detailed below, these solutions of test compounds and compositions were applied to cotton plants at a concentration of 0.5 pounds of each active ingredient per acre (0,6 kg/ha) or 2.0 pounds of active ingredient per acre (2,2 kg/ha). The compositions were applied to cotton as mixtures.
(§2) The above solutions were applied to cotton plants growing under field conditions at a spray volume equivalent to 100 gallons per acre 935 l/ha) by use of a carbon dioxide backpack sprayer set at about 30 psig air pressure (2 bar). The application timing coincided with a cotton maturity phase equivalent to about 40 percent open bolls. As a control, a water-acetone solution containing no test compound or composition was also sprayed on the cotton plants. At four days after treatment, percent defoliation of the cotton plants was determined by visual observation. At 14 days after treatment, percent boll opening was determined by visual observation of the number of open bolls/total number of bolls. The percent defoliation and percent boll opening values obtained for the control and each of the test compounds and compositions are reported in Table F as the average of three replications. TABLE F
In a manner similar to the procedure described in Example IX , the defoliation effect on cotton was determined for representative synergistic compositions at various rates of application.

The subject of test [2] is mature tobacco plants. In words: Leaf ripening (chlorosis) of tobacco (Example XV, Table L). The note with it: Rate 1.0 Pounds per Acre, alone; upper three leaves; 7 days after treatment; control 10. In kind it is in vivo. As for the experimental part: Solutions of the test compounds and compositions identified in Table C below were prepared by dissolving the compounds in acetone/water (50:50 volume/volume) containing 0.1 percent volume/volume of Triton X-100 surfactant commercially available from Rhom and Haas Company, Philadelphia, Pennsylvania. As detailed below, these solutions of the test compounds and compositions were applied to snapbean plants at a concentration of 0.25 pounds of each active ingredient per acre (0.28 kg/ha) or 0.50 pounds of each active ingredient per acre (0.56 kg/ha). The compositions were applied to the snapbean plants as a mixture. […]
Into 13.5 centimeter diameter plastic pots containing a potting soil mix, i.e., one-third sandy loam soil, one-third peat moss and one-third perlite by volume, were sown three snapbean seeds (Phaseolus vulgaris var. Cranberry). […] At 96 hours after treatment, percent defoliation of the snapbean plants was determined by visual observation. […]
In a manner similar to the procedure described in Example VI except that mature tobacco plants were used in place of snapbean plants, the leaf ripening effect of tobacco was determined for representative synergistic compositions at various rates of application. […] Percent tobacco leaf ripening (chlorosis) was determined by visual observation of the upper three leaves of the tobacco plant at 7 days after treatment. […]

For test [3], the system named is rank growth cotton. The experiment in a line: Defoliation of cotton (rank growth) (Example X, Table G). It counts as in vivo. The conditions noted are these: Rate 2.0 Pounds per Acre. As for the experimental part:
as §1, §2
In a manner similar to the procedure described in Example IX , the defoliation effect on rank growth cotton was determined for representative synergistic compositions at various rates of application. […] TABLE G

In test [4] the test system is snapbean plants. The experiment in a line: Defoliation of snapbean plants at various rates, 72 hours (Example VII, Table D). In kind it is in vivo, Phaseolus vulgaris var. Cranberry. The note with it: 72 hours after treatment. The procedure:
(§3) Solutions of the test compounds and compositions identified in Table C below were prepared by dissolving the compounds in acetone/water (50:50 volume/volume) containing 0.1 percent volume/volume of Triton X-100 surfactant commercially available from Rhom and Haas Company, Philadelphia, Pennsylvania. As detailed below, these solutions of the test compounds and compositions were applied to snapbean plants at a concentration of 0.25 pounds of each active ingredient per acre (0.28 kg/ha) or 0.50 pounds of each active ingredient per acre (0.56 kg/ha). The compositions were applied to the snapbean plants as a mixture. Ethephon is commercially available from Union Carbide Agricultural Products Company, Inc., Research Triangle Park, North Carolina.
(§4) Into 13.5 centimeter diameter plastic pots containing a potting soil mix, i.e., one-third sandy loam soil, one-third peat moss and one-third perlite by volume, were sown three snapbean seeds (Phaseolus vulgaris var. Cranberry). Five to seven days after planting, the plants were thinned to one plant per pot. Ten to fourteen days after planting at the time of full expansion of the primary leaves, each concentration of the test compounds and compositions identified in […] (each pot sprayed with a volume equivalent to 180 gallons per acre) - i.e. 1683 l/ha was applied to three snapbean plants as a foliar spray by use of an aspirated spray apparatus set at 10 psig air pressure (517 mmHg). As a control, a water-acetone solution containing no test compound or composition was also sprayed on three snapbean plants. When dry, all or the plants were placed in a greenhouse at a temperature of 80°F ± 5°F (27°C ± 3°C) and humidity of 50 percent ± 5 percent. At 96 hours after treatment, percent defoliation of the snapbean plants was determined by visual observation. The values obtained For the control and each test compound and composition were averaged to obtain the results in Table C.
In a manner similar to the procedure described in Example VI, the defoliation effect on snapbean plants was determined for representative synergistic compositions at various rates of application except that percent defoliation of the snapbean plants was determined at 72 hours after treatment. TABLE D

Test [5] deals with cotton. In words: Sequential applications, defoliation of cotton (Example XI, Table H). In kind it is in vivo. The conditions noted are these: alone. The procedure:
In a manner similar to the procedure described in Example VI , the defoliation effect on snapbean plants was determined for representative synergistic compositions using both combination (tank mix) and sequential application methods. In the sequential application method, the second compound was applied 78 hours after the first compound. TABLE E
In a manner similar to the procedure described in Example VIII , the defoliation effect on cotton was determined for representative synergistic compositions using sequential application. Ethephon applications were made 7 days after application of the particular malonic acid derivative compound. TABLE H

For test [6], the system named is snapbean plants. In words: Defoliation of snapbean plants, foliar spray (Example VI, Table C). In kind it is in vivo, Phaseolus vulgaris var. Cranberry. The conditions noted are these: Phaseolus vulgaris, read-out: Percent Defoliation. As for the experimental part: as §3, §4
Test [7] has as its system cotton plants. The experiment in a line: Defoliation and boll opening of cotton under field conditions (Example IX, Table F). In kind it is in vivo. The note with it: Rate 2.0 Pounds per Acre; for Percent Boil Opening: 14 days after treatment, control 41; for Percent Defoliation: field conditions, four days after treatment. The arrangement: key to Percent Boil Opening: *: Percent boll opening essentially the same as the control as determined by visual observation. As for the experimental part:
as §1, §2

Test [8] concerns cotton plant. The experiment in a line: Regrowth of cotton following defoliation, DEF treated plant as standard (Example XIV, Table K). In kind it is in vivo. As for the experimental part:
as §1, §2
In a manner similar to the procedure described in Example IX , the effect of cotton regrowth after defoliation was determined for representative synergistic compositions at various rates of application. The percent regrowth inhibition and stimulation in Table R below were determined by visual observation based on the percent of a cotton plant having regrowth using a DEF treated cotton plant as the standard. DEF is commercially available from Mobay Chemical Corporation, Kansas City, Missouri. The average regrowth of a cotton plant treated with DEF was 43 percent. As used in Table R, percent regrowth inhibition resulted from a cotton plant having a regrowth percentage less than 43 percent (DEF standard), and percent regrowth stimulation resulted from a cotton plant having a regrowth percentage greater than 43 percent. The percent regrowth inhibition and stimulation were determined 30 days after treatment.

Test [9] deals with snapbean plants. The experiment in a line: Combination/sequential applications, defoliation of snapbean plants (Example VIII, Table E). The conditions noted are these: Rate 0.5 Pounds per Acre, applied alone. In kind it is in vivo, Phaseolus vulgaris var. Cranberry. The procedure: as §3
Into 13.5 centimeter diameter plastic pots containing a potting soil mix, i.e., one-third sandy loam soil, one-third peat moss and one-third perlite by volume, were sown three snapbean seeds (Phaseolus vulgaris var. Cranberry). Five to seven days after planting, the plants were thinned to one plant per pot. […] At 96 hours after treatment, percent defoliation of the snapbean plants was determined by visual observation. […]
In a manner similar to the procedure described in Example VI , the defoliation effect on snapbean plants was determined for representative synergistic compositions using both combination (tank mix) and sequential application methods. […]

The subject of test [10] is snapbean plants. The experiment in a line: Defoliation of snapbean plants with various ethylene releasing agents (Example XVI, Table M). It counts as in vivo, Phaseolus vulgaris var. Cranberry. The procedure:
as §3, §4
In a manner similar to the procedure described in Example VI , the defoliation effect on snapbean plants was determined for representative synergistic compositions at various rates of application using various ethylene releasing agents identified in Table M below. The ethylene releasing agents used in […] are known materials which can be prepared by conventional methods.

The test system of test [11] is cotton. In words: Defoliation of cotton at various rates (Example XIII, Table J). It counts as in vivo. The note with it: Rate 0.5 Pounds per Acre, alone. As for the experimental part: as §1, §2
In a manner similar to the procedure described in Example IX , the defoliation effect on cotton was determined for representative synergistic compositions at various rates of application. TABLE J

[12] abbreviates: regrowth relative to DEF standard (43 percent), Rate 0.5 Pounds per Acre, 30 days after treatment.
Where [13] appears, read: Gossypium hirsutum, 720 h, read-out: Percent Inhibition.

Read-outs that look alike come from different tables or passages of the source.

As to `CCOC(=O)C1(C(=O)Nc2ccc(Br)cc2C)CC1` [Compound 96], the “Percent Defoliation” value in [1], in test [3], in test [4] (Rate 0.25 Pounds per Acre), in test [4] (Rate 0.50 Pounds per Acre), in test [5] (Rate 0.5 Pounds per Acre) and in test [5] (Rate 1.0 Pounds per Acre) was 0% in each case. Moreover, the “Percent Defoliation” value in test [7] and in [9] was 0% each time. The “Percent Ripening (Chlorosis)” value in test [2] was determined as 10%. Besides, the pest or weed control at 280.212 g/ha in test [6] (Rate 0.25 Pounds per Acre, foliar spray, 96 hours after treatment) came to 0%. Moreover, in [6] (Rate 0.50 Pounds per Acre, foliar spray, 96 hours after treatment), the pest or weed control at 560.425 g/ha turned out to be 0%. Moreover, the “Percent Boil Opening” value in test [7] (result given by footnote symbol) is “*”. Besides, the inhibition at 560.425 g/ha in test [8] (Gossypium hirsutum, 720 h, regrowth relative to DEF standard (43 percent), Rate 0.5 Pounds per Acre, 30 days after treatment, read-out: Percent Inhibition) was determined as 0%. For the same compound, the “Percent Stimulation” value in [8] (setting [12]) is reported as 0%.
Take `O=P(O)(O)CCCl` [Ethephon, 2-chloroethylphosphonic acid, reference compound]: the “Percent Defoliation” value in [1] was determined as 13%; in test [10] (Rate 0.125 Pounds per Acre), 0%; in test [10] (Rate 0.25 Pounds per Acre) it was 0%; in test [10] (Rate 0.50 Pounds per Acre) it was 0%; in test [3] it was 12%; in [4] (Rate 0.25 Pounds per Acre), 0%. The “Percent Defoliation” value in [4] (Rate 0.50 Pounds per Acre) was determined as 0%; in [5] (Rate 0.25 Pounds per Acre), 3%; in test [7], 5%; in [9], 0%; in test [11], 5%. Besides, in [2], the “Percent Ripening (Chlorosis)” value turned out to be 10%. In [6] (foliar, 96 h), the pest or weed control at 280.212 g/ha amounted to 0%. Moreover, the pest or weed control at 560.425 g/ha in test [6] (foliar, 96 h) was determined as 21%. The “Percent Boil Opening” value in test [7] amounted to 64%. Further, the inhibition at 560.425 g/ha in [8] (setting [13]) was determined as 0%. In addition, in test [8] (setting [13]), the inhibition at 1120.85 g/ha is 0%. For the same compound, the inhibition at 2241.7 g/ha in test [8] (setting [13]) is 0%. The “Percent Stimulation” value in test [8] (setting [12]) amounted to 16%; in test [8] (regrowth relative to DEF standard (43 percent), Rate 1.0 Pounds per Acre, 30 days after treatment), 70%; in test [8] (regrowth relative to DEF standard (43 percent), Rate 2.0 Pounds per Acre, 30 days after treatment), 62%.

The inhibition is the share of the control response that was lost under treatment.
